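Growth conditions: 96-well plates. Treatment: test compound, 48 hours, 5 concentrations. Analysis: linear interpolation between bracketing concentrations; unreached endpoints set to highest concentration. GI50 marks 50% less growth. TGI: concentration producing complete growth inhibition.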 Bounds are passed on as bounds.

For eight molecules, GI50 and TGI results are on record in PubChem BioAssay (NCI).

Test systems include A549 NSCLC; SF-268 CNS; LOX IMVI melanoma; RXF 393 renal; SK-MEL-28 melanoma; TK-10 renal; SW-620 colon; MOLT-4 leukemia; SK-OV-3 ovarian; MALME-3M melanoma.
Common to all, as to assay: DTP human tumour cell line panel, 48 h

For the molecule `COc1ccc2c(c1)CCCN2c1c2ccccc2nc2ccccc12`, the GI50 in the experiment with A549 NSCLC is 0.418 µM; in the experiment with SF-268 CNS, 0.933 µM; with LOX IMVI melanoma, 0.505 µM; with RXF 393 renal it was 0.27 µM; in the experiment with SK-MEL-28 melanoma it was 0.878 µM; with TK-10 renal, 3.38 µM. The GI50 in the experiment on SW-620 colon was 0.403 µM; in the experiment on MOLT-4 leukemia, 0.4 µM; with SK-OV-3 ovarian it was 0.652 µM; in the experiment with MALME-3M melanoma, 4.26 µM. Moreover, the total growth inhibition concentration (TGI) in the experiment on A549 NSCLC is over 100 µM; in the experiment with SF-268 CNS, over 100 µM; with LOX IMVI melanoma, 12.1 µM; in the experiment with RXF 393 renal it was 0.786 µM; in the experiment on SK-MEL-28 melanoma it was over 100 µM; in the experiment on TK-10 renal, over 100 µM. The TGI in the experiment on SW-620 colon, in the experiment on MOLT-4 leukemia, with SK-OV-3 ovarian and with MALME-3M melanoma was over 100 µM in each case.
On to `C[C@@H]1OC(=O)N2CCCC(=C3SCCCS3)C12` (stereo partly specified), for which the TGI with A549 NSCLC, in the experiment on SF-268 CNS, in the experiment with LOX IMVI melanoma, with RXF 393 renal, with SK-MEL-28 melanoma and in the experiment on TK-10 renal was over 100 µM in each case. The TGI with SW-620 colon, with MOLT-4 leukemia, with SK-OV-3 ovarian and with MALME-3M melanoma was over 100 µM in each case.
As to `COc1ccc2c(c1)C(=O)c1c-2n(CCCn2ccnc2)c(=O)c2cc([N+](=O)[O-])ccc12`, the GI50 in the experiment with A549 NSCLC was under 0.01 µM; with SF-268 CNS, under 0.01 µM; in the experiment on LOX IMVI melanoma it was under 0.01 µM; in the experiment with RXF 393 renal, under 0.0107 µM; in the experiment on TK-10 renal it was 0.14 µM; in the experiment with SW-620 colon, under 0.0111 µM. In addition, the GI50 in the experiment on MOLT-4 leukemia was under 0.01 µM; with SK-OV-3 ovarian, under 0.01 µM; in the experiment with MALME-3M melanoma, under 0.0197 µM. Also, the concentration for total growth inhibition (TGI) with SF-268 CNS is over 75.5 µM; in the experiment on LOX IMVI melanoma, 0.0351 µM; in the experiment with SK-MEL-28 melanoma it was over 100 µM; with TK-10 renal it was over 95.8 µM; with SW-620 colon it was over 39.9 µM; with SK-OV-3 ovarian, 1.88 µM. For the same molecule, in the experiment on MALME-3M melanoma, the TGI came out at 10.8 µM.
For the molecule `O=C1Nc2ccccc2C1(c1ccc(O)cc1)c1ccc(O)cc1`, the GI50 with A549 NSCLC is 27.9 µM; with SF-268 CNS, 24.4 µM; in the experiment on LOX IMVI melanoma it was 5.97 µM; in the experiment with RXF 393 renal it was 0.445 µM; in the experiment on SK-MEL-28 melanoma it was 26.9 µM; with TK-10 renal, 0.536 µM. In addition, the GI50 with SW-620 colon is 26.2 µM; in the experiment on MOLT-4 leukemia, 26.6 µM; in the experiment with SK-OV-3 ovarian, 22.8 µM; in the experiment with MALME-3M melanoma, 28.5 µM. In addition, the TGI is over 96.7 µM with A549 NSCLC; 77.9 µM with SF-268 CNS; 35.9 µM in the experiment on LOX IMVI melanoma; 13.4 µM in the experiment with RXF 393 renal; 65.7 µM with SK-MEL-28 melanoma; 39.6 µM in the experiment on TK-10 renal. Besides, the TGI in the experiment on SW-620 colon is 83 µM; in the experiment on MOLT-4 leukemia, 98.1 µM; with SK-OV-3 ovarian, 54.2 µM; in the experiment on MALME-3M melanoma it was 92 µM.
Regarding `COc1cc2ncn(-c3cc(OCc4cccs4)c(C(N)=O)s3)c2cc1OC`, the GI50 is 1.87 µM in the experiment on A549 NSCLC; 1.95 µM in the experiment on SF-268 CNS; 1.19 µM in the experiment with LOX IMVI melanoma; 1.31 µM with RXF 393 renal; 7.62 µM in the experiment with SK-MEL-28 melanoma; 9.21 µM in the experiment with TK-10 renal. For the same molecule, the GI50 is 1.04 µM in the experiment with SW-620 colon, 1.07 µM in the experiment on MOLT-4 leukemia, 1.81 µM with SK-OV-3 ovarian and 2.5 µM in the experiment with MALME-3M melanoma. In addition, the TGI is over 17.5 µM in the experiment with A549 NSCLC; over 25 µM with SF-268 CNS; over 19.2 µM in the experiment with LOX IMVI melanoma; over 15.7 µM in the experiment on RXF 393 renal; over 25 µM in the experiment on SK-MEL-28 melanoma; over 25 µM in the experiment with TK-10 renal. Also, the TGI was over 20.3 µM in the experiment on SW-620 colon, over 25 µM in the experiment on MOLT-4 leukemia, over 20 µM in the experiment with SK-OV-3 ovarian and over 25 µM in the experiment on MALME-3M melanoma.
As to `C/C(O)=C(\N=O)C(=O)Nc1ccc(Cl)cc1Cl`, the TGI in the experiment with A549 NSCLC, with SF-268 CNS, in the experiment with LOX IMVI melanoma, in the experiment on RXF 393 renal, in the experiment on SK-MEL-28 melanoma and in the experiment on TK-10 renal was over 100 µM each time. For the same molecule, the TGI with SW-620 colon, in the experiment on MOLT-4 leukemia, in the experiment on SK-OV-3 ovarian and in the experiment with MALME-3M melanoma was over 100 µM in each case.
`COc1cc[nH]c1/C=C1\C(=O)Nc2ccc(F)c(C#CC3(O)CCNCC3)c21`: the GI50 with A549 NSCLC is 0.0985 µM; in the experiment on SF-268 CNS, 0.196 µM; in the experiment on LOX IMVI melanoma it was 0.0645 µM; in the experiment on RXF 393 renal it was 0.0204 µM; in the experiment on SK-MEL-28 melanoma it was 0.14 µM; with TK-10 renal, 0.0291 µM. In addition, the GI50 in the experiment with SW-620 colon was 0.0832 µM; in the experiment on MOLT-4 leukemia, 0.063 µM; in the experiment with SK-OV-3 ovarian, 0.0172 µM; in the experiment with MALME-3M melanoma, 0.405 µM. Also, the TGI with A549 NSCLC was determined as 1.18 µM; in the experiment with SF-268 CNS, 0.848 µM; with LOX IMVI melanoma it was 0.568 µM; in the experiment on RXF 393 renal it was 0.201 µM; in the experiment on SK-MEL-28 melanoma, 1.39 µM; in the experiment on TK-10 renal it was 0.72 µM. Besides, the TGI turned out to be 2.67 µM in the experiment on SW-620 colon, 0.965 µM in the experiment on MOLT-4 leukemia, 2.61 µM in the experiment with SK-OV-3 ovarian and 1.11 µM in the experiment on MALME-3M melanoma.
In the case of `O=C(O)CCNC1CCCCC1`, the GI50 in the experiment with A549 NSCLC, in the experiment on SF-268 CNS, in the experiment on LOX IMVI melanoma, in the experiment on RXF 393 renal, in the experiment on SK-MEL-28 melanoma and with TK-10 renal was over 100 µM throughout. Besides, the GI50 in the experiment on SW-620 colon, in the experiment with MOLT-4 leukemia, in the experiment on SK-OV-3 ovarian and with MALME-3M melanoma was over 100 µM in each case. Besides, the TGI in the experiment with A549 NSCLC, in the experiment on SF-268 CNS, with LOX IMVI melanoma, in the experiment with RXF 393 renal, in the experiment on SK-MEL-28 melanoma and with TK-10 renal was over 100 µM in each case. Further, the TGI in the experiment with SW-620 colon, in the experiment with MOLT-4 leukemia, in the experiment on SK-OV-3 ovarian and in the experiment with MALME-3M melanoma was over 100 µM each time.

What is called GI50 is the concentration giving 50% growth inhibition. Broadly, the TGI is the concentration giving total growth inhibition. Higher therefore signals lower sensitivity of the cells.
